# Assay results as given in ChEMBL document CHEMBL5241098, “Progress in the development of small molecular inhibitors of the Bruton's tyrosine kinase (BTK) as a promising cancer therapy” (Bioorg Med Chem, 2021).
# Key:
# [1] = target: T1, Protein cereblon/Tyrosine-protein kinase BTK (Homo sapiens, UniProt Q06187+Q96SW2); assay: PROTAC activity at CRBN/BTK in human MINO cells assessed as decrease in BTK level by measuring maximal efficacy incubated for 24 hrs by Western blot analysis relative to control; assay type: cell-based
# Target sequence in this assay (Q06187 2-659 limits assumed): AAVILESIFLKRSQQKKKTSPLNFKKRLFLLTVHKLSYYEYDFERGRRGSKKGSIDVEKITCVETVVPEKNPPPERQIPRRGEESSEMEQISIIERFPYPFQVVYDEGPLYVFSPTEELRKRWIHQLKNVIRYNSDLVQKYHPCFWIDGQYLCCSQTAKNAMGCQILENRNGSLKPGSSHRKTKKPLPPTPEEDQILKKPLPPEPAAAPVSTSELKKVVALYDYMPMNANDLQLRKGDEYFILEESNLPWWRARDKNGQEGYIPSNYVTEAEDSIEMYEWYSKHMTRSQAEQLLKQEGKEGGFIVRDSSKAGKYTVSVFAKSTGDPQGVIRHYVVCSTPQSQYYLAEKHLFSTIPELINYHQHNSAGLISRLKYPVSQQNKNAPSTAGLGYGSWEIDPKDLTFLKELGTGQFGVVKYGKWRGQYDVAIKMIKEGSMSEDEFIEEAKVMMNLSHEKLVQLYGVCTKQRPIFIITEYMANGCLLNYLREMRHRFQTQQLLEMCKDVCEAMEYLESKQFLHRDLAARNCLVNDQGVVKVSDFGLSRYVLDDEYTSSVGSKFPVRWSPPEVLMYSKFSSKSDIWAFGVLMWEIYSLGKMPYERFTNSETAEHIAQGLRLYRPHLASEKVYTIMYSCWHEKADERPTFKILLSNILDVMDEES
# Target sequence in this assay (Q96SW2 whole entry partner): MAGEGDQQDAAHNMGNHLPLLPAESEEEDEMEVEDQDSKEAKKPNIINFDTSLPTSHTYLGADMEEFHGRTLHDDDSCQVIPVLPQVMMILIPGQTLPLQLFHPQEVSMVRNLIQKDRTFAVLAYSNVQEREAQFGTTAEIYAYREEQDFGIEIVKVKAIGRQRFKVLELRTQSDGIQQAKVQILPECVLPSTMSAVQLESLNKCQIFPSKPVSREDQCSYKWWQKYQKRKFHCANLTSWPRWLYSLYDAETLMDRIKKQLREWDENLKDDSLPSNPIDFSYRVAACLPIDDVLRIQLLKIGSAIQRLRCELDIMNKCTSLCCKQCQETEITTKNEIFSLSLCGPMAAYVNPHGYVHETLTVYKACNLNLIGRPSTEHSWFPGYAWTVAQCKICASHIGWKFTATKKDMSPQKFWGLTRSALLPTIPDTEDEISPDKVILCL
# [2] = target: T1, Protein cereblon/Tyrosine-protein kinase BTK; assay: PROTAC activity at CRBN/BTK in human MINO cells assessed as decrease in BTK level incubated for 24 hrs by Western blot analysis; assay type: cell-based
# Target sequence in this assay (Q06187 whole entry): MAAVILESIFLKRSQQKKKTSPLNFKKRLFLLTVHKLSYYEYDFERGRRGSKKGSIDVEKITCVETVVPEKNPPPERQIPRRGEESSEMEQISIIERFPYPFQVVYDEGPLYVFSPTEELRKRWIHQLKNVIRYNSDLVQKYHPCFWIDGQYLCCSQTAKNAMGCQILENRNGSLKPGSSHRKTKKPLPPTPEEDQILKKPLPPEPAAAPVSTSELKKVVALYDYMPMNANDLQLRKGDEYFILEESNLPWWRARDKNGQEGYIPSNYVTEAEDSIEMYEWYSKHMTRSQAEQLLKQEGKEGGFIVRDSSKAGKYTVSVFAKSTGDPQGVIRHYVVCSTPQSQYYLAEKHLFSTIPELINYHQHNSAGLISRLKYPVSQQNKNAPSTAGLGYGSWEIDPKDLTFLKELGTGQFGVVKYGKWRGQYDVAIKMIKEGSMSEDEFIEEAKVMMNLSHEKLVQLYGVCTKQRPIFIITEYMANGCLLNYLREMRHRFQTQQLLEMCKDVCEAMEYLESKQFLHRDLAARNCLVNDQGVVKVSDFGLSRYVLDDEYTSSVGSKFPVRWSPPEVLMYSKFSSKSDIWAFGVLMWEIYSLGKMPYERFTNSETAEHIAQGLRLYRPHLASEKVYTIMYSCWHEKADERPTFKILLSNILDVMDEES
# Target sequence in this assay (Q96SW2 whole entry): as the sequence (Q96SW2 whole entry partner) above
# Ramos [3] = assay: Antiproliferative activity against human Ramos cells assessed as reduction in cell viability incubated for 72 hrs by CCK-8 assay
# NAMALVA = assay: Antiproliferative activity against human NAMALVA cells assessed as reduction in cell viability incubated for 72 hrs by CCK-8 assay
# Raji = assay: Antiproliferative activity against human Raji cells assessed as reduction in cell viability incubated for 72 hrs by CCK-8 assay
# [4] = target: T2, Receptor-type tyrosine-protein kinase FLT3 (Homo sapiens, UniProt P36888); assay: Inhibition of FLT3 (unknown origin)
# T2 sequence (P36888 whole entry): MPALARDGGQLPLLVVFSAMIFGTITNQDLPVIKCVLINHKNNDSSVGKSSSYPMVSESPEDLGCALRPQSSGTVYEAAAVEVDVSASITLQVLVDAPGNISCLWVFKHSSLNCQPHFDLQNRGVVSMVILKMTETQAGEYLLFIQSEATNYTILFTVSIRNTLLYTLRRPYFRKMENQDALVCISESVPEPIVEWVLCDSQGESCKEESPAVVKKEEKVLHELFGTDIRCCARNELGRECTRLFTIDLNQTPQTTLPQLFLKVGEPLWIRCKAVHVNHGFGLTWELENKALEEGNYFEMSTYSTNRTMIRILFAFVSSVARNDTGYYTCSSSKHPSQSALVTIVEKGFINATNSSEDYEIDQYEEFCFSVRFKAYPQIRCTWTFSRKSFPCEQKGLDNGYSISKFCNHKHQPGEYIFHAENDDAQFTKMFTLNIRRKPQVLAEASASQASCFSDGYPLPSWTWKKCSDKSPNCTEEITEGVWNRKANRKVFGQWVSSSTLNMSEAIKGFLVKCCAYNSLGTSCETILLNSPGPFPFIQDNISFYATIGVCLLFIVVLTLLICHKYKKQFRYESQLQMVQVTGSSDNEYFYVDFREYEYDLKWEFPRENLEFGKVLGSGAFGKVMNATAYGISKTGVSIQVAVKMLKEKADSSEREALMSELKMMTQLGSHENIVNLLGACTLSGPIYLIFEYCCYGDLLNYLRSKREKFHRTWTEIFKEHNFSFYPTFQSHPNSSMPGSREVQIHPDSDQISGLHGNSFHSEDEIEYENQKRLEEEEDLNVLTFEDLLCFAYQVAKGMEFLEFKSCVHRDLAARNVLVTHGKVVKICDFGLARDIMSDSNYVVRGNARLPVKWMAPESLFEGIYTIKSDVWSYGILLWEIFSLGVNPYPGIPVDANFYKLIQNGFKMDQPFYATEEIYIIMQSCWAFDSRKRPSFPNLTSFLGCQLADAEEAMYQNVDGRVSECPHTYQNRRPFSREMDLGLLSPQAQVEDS
# [5] = target: Epidermal growth factor receptor (Homo sapiens, UniProt P00533); assay: Inhibition of EGFR (unknown origin)
# [6] = target: T3, Tyrosine-protein kinase JAK3 (Homo sapiens, UniProt P52333); assay: Inhibition of JAK3 (unknown origin)
# T3 sequence (P52333 whole entry): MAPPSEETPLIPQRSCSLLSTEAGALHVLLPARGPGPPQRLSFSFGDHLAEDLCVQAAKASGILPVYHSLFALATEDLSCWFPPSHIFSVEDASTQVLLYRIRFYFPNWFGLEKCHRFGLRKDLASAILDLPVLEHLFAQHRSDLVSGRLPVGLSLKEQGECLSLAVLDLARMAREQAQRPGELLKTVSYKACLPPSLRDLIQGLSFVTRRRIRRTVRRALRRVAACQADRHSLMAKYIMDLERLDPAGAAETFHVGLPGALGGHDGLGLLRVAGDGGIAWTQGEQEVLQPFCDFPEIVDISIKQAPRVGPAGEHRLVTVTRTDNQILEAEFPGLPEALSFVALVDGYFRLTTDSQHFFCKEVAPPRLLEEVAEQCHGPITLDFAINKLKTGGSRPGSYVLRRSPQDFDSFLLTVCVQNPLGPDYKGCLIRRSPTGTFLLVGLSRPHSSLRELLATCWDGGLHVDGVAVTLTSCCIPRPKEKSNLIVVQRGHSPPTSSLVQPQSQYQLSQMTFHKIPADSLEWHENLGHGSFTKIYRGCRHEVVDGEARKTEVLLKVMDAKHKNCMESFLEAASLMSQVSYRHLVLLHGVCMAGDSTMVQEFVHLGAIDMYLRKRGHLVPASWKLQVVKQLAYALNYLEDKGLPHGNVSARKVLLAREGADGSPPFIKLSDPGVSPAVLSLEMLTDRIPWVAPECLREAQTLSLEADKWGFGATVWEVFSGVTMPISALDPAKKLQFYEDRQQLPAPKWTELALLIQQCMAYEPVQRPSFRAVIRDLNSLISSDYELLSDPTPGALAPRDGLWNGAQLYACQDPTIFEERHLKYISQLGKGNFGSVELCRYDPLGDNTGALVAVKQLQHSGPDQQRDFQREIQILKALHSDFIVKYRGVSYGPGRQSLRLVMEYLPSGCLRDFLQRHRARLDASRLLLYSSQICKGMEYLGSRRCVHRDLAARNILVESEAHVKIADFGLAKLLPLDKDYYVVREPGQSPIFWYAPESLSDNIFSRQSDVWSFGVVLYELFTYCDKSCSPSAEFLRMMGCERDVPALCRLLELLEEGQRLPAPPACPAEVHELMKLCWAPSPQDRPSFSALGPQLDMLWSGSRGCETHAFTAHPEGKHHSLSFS
# U2932 = assay: Growth inhibition of human U2932 cells; assay type: functional
# [7] = target: T4, Tyrosine-protein kinase BTK (Homo sapiens, UniProt Q06187); assay: Inhibition of BTK (unknown origin)
# Ramos [8] = assay: Growth inhibition of human Ramos cells; assay type: functional
# OCI-Ly7 = assay: Growth inhibition of human OCILY7 cells; assay type: functional
# JeKo-1 = assay: Antiproliferative activity against BTK knockout human JeKo-1 cells assessed as reduction in cell viability incubated for 72 hrs by CellTiter Glo luminescence assay; details: JeKo-1, 72 h
# Maver1 = assay: Antiproliferative activity against human MAVER-1 cells assessed as reduction in cell viability incubated for 72 hrs by CellTiter Glo luminescence assay; details: Maver1, 72 h
# Z-138 = assay: Antiproliferative activity against human Z138 cells assessed as reduction in cell viability incubated for 72 hrs by CellTiter Glo luminescence assay; details: Z-138, 72 h
# [9] = target: T4, Tyrosine-protein kinase BTK; assay: Inhibition of BTK (unknown origin) in the presence of ATP
# [10] = target: T1, Protein cereblon/Tyrosine-protein kinase BTK; assay: PROTAC activity at CRBN/BTK in human NAMALVA cells assessed as decrease in BTK level by measuring maximal efficacy incubated for 24 hrs by Western blot analysis relative to control; assay type: cell-based
# Target sequence in this assay (Q06187 2-659 limits assumed): as the sequence (Q06187 2-659 limits assumed) above
# Target sequence in this assay (Q96SW2 whole entry partner): as the sequence (Q96SW2 whole entry partner) above
# [11] = target: T1, Protein cereblon/Tyrosine-protein kinase BTK; assay: PROTAC activity at CRBN/BTK in human NAMALVA cells assessed as decrease in BTK level incubated for 24 hrs by Western blot analysis; assay type: cell-based
# Target sequence in this assay (Q06187 whole entry): as the sequence (Q06187 whole entry) above
# Target sequence in this assay (Q96SW2 whole entry): as the sequence (Q96SW2 whole entry partner) above
# [12] = target: E3 ubiquitin-protein ligase XIAP/Tyrosine-protein kinase BTK (Homo sapiens, UniProt P98170+Q06187); assay: PROTAC activity at IAP/BTK in human THP-1 cells assessed as reduction in BTK level incubated for 16 hrs by immunoblot analysis; assay type: cell-based
# E3 ubiquitin-protein ligase XIAP/Tyrosine-protein kinase BTK, sequence (P98170 whole entry): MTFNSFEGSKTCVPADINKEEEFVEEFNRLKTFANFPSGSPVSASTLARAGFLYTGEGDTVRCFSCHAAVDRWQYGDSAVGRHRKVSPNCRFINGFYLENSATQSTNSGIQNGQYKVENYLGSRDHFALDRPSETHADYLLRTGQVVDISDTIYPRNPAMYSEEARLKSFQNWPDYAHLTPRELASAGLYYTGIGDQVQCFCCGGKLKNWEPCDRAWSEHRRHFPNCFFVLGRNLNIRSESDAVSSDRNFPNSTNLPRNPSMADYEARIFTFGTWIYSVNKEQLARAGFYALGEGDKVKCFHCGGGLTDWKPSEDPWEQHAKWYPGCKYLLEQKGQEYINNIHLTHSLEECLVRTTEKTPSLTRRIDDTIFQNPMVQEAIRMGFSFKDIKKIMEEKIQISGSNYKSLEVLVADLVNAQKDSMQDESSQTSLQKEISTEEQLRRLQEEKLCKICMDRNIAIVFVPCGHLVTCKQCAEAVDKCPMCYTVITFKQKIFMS
# E3 ubiquitin-protein ligase XIAP/Tyrosine-protein kinase BTK, sequence (Q06187 whole entry): as the sequence (Q06187 whole entry) above
# T4 sequence (Q06187 whole entry): as above
# Epidermal growth factor receptor, sequence (P00533 whole entry): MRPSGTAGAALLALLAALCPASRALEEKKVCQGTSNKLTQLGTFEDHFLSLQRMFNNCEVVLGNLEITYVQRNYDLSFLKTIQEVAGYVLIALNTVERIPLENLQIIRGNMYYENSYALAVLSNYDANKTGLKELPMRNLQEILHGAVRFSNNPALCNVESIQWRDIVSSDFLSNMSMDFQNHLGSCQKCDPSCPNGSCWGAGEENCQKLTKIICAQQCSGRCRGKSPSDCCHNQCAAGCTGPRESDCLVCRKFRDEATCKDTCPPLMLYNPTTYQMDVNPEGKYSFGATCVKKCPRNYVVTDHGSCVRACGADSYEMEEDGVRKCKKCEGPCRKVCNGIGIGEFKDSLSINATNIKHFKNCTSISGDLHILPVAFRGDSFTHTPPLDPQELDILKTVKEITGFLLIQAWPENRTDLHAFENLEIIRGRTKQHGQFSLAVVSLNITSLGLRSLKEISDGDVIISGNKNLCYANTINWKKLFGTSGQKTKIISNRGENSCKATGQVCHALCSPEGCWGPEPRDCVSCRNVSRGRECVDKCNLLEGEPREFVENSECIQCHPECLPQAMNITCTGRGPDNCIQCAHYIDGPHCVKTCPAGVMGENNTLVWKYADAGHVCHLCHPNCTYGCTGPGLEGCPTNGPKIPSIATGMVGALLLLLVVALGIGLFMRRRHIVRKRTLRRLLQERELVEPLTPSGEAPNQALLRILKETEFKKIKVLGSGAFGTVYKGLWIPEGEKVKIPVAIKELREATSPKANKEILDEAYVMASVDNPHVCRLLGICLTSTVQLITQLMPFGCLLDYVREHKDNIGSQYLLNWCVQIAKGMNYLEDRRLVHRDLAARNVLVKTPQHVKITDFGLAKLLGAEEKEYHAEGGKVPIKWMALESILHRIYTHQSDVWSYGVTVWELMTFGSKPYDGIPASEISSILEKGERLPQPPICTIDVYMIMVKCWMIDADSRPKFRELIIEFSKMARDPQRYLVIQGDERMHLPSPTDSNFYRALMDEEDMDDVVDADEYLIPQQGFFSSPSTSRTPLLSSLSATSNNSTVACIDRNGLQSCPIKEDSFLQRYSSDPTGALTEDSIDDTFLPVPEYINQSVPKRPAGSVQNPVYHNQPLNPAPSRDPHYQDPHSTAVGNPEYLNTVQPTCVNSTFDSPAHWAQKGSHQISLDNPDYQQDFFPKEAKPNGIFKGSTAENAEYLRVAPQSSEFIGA
structure (smiles),measurement,setting,value
Nc1ncnc2c1c(-c1ccc(Oc3ccccc3)cc1)nn2C1CCCN(C(=O)CCCCCCCOCCOCCOCCOCCOc2cccc3c2C(=O)N(C2CCC(=O)NC2=O)C3=O)C1 (configuration not stated),Emax,[1],97%
same,EC50,[2],2.2 nM
C=CC(=O)Nc1cccc(Nc2nc(Nc3ccc(Cn4cc(C)nc4CC)cc3)ncc2F)c1,IC50,Ramos [3],9250 nM
same,IC50,NAMALVA,4950 nM
same,IC50,Raji,4370 nM
Cc1cnc(-c2ccc(-c3ccc(NC(=O)Nc4cccc(C(F)(F)F)c4)cc3F)c3c2C(=O)NC3)[nH]1,IC50,[4],80 nM
C=CC(=O)N1CCc2ccc(N3C(=O)CCc4cnc5ccc(-c6cnn(C)c6)cc5c43)cc21,IC50,[5],4310 nM
same,IC50,[6],5180 nM
same,GI50,U2932,200 nM
same,IC50,[7],6.59 nM
same,GI50,Ramos [8],370 nM
C=CC(=O)NCC(=O)Nc1ncc(NC(=O)c2cc(C)cc(NC(=O)c3cccc(C)c3)c2)cn1,GI50,OCI-Ly7,220 nM
same,IC50,[7],< 5 nM
Nc1cccc(Cn2nc(-c3ccc(Oc4ccccc4)cc3)c3c(N)ncnc32)c1,IC50,JeKo-1,11200 nM
same,IC50,Maver1,16800 nM
same,IC50,Z-138,14200 nM
Nc1ncnc2c1c(-c1ccc(Oc3ccccc3)cc1)nn2Cc1cccc(NC(=O)CCl)c1,IC50,JeKo-1,400 nM
same,IC50,Maver1,400 nM
same,IC50,Z-138,800 nM
CN1CCN(c2ccc(Nc3nc(Nc4ccccc4)c4ncn(CC5CC5)c4n3)cc2)CC1,IC50,[9],900 nM
Nc1ncnc2c1c(-c1ccc(Oc3ccccc3)cc1)nn2C1CCN(CCOCCOCC(=O)Nc2ccc3c(c2)C(=O)N(C2CCC(=O)NC2=O)C3=O)CC1 (configuration not stated),Emax,[10],> 99%
same,EC50,[11],6.2 nM
CN[C@H](C)C(=O)N[C@@H](C(=O)N1C[C@@H](NC(=O)COCCOCCOCCOCCN2CCN(CCCC(=O)N3CCCC(n4nc(-c5ccc(Oc6ccccc6)cc5)c5c(N)ncnc54)C3)CC2)C[C@H]1C(=O)N[C@@H]1CCCc2ccccc21)C1CCCCC1 (some centres not stated),EC50,[12],200 nM
CN1CCN(c2ccc(Nc3nc(Nc4cccc(F)c4)c4ncn(CC5CC5)c4n3)cc2F)CC1,IC50,[9],1810 nM
C=CC(=O)Nc1cccc(Nc2nc(Nc3ccc(Cn4cc(C)nc4CC)cc3)ncc2Cl)c1,IC50,Ramos [3],10800 nM
same,IC50,NAMALVA,4900 nM
same,IC50,Raji,7980 nM
